Experimental data reported in patent US10765657B2, “Selamectin for treatment of sea lice infestations” (priority 2013, dated 2020).

Experiments:
[1] = tested on: naïve sea lice, Lepeophtheirus salmonis; assay: Static 24 hour sea lice bioassay, naïve strain; conditions: 24 hours exposure, 0.2% DMSO in seawater, about 10-12° C.
[2] = tested on: emamectin benzoate resistant sea lice, Lepeophtheirus salmonis; assay: Static 24 hour sea lice bioassay, emamectin benzoate resistant strain; conditions: 24 hours exposure, 0.2% DMSO in seawater, about 10-12° C.
naïve sea lice = assay: Prophylactic efficacy of medicated feed against sea lice challenge in fish; assay type: in vivo
Method: Experimental diets containing selamectin were administered to 15×2 m diameter tanks of 75 fish by voluntary feeding from Day 0 to Day 6. […] The study evaluated the three concentrations of test material in comparison to a negative control (placebo) and a positive control. Each group was run as triplicate tanks. In each group, sea lice were evaluated using a representative sample of 5 fish per tank on Day −1 (pre-treatment) and 10 fish per tank on days 10 and 30 (4 and 24 days post-treatment).
The prophylactic effect of treatment was determined by removing lice and using further sea lice challenges at intervals. All adult lice were removed from remaining fish following Day 30 and a further sea lice challenge took place on Day 37 (31 days post treatment) and lice counts and tissue samples taken from 10 fish per tank on Day 60 (53 days post treatment).
All adult lice were removed from remaining fish following Day 64 and 12 fish per tank were moved to 15×1 m diameter tanks. On Day 67 (61 days post-treatment) the fish in these 1 m tanks received a further sea lice challenge and on Day 90 (84 days post-treatment) lice counts and tissue samples were taken from 10 fish per tank.
On Day 76 (70 days post-treatment) the fish remaining in 2 m tanks received a further naïve sea lice challenge and on Day 99 (93 days post-treatment) lice counts and tissue samples were taken from 10 fish per tank.

Row | Molecule | Adult females EC50 [1] | Adult males EC50 [1] | Adult females EC50 [2] | Adult males EC50 [2] | prophylactic efficacy (naïve sea lice; 40 μg/kg/day oral in feed, Day 0 to Day 6, at 4.4 weeks) | prophylactic efficacy (naïve sea lice; 40 μg/kg/day oral in feed, Day 0 to Day 6, at 10 weeks) | prophylactic efficacy (naïve sea lice; 160 μg/kg/day oral in feed, Day 0 to Day 6, at 4.4 weeks) | prophylactic efficacy (naïve sea lice; 160 μg/kg/day oral in feed, Day 0 to Day 6, out to 10 weeks) | prophylactic efficacy (naïve sea lice; 50 μg/kg/day (commercially licensed value) oral in feed, at 4.4 weeks) | prophylactic efficacy (naïve sea lice; 50 μg/kg/day (commercially licensed value) oral in feed, out to 10 weeks)
1 | CO[C@H]1C[C@H](O[C@@H]2/C(C)=C/C[C@@H]3C[C@@H](C[C@]4(CC[C@H](C)[C@@H](C5CCCCC5)O4)O3)OC(=O)[C@@H]3C=C(C)/C(=N/O)[C@H]4OC/C(=C\C=C\[C@@H]2C)[C@]43O)O[C@@H](C)[C@@H]1O [Selamectin, selamectin] | 10.68 ppb | 3.21 ppb | 16.91 ppb | 6.95 ppb | 99.6% | 68.4% | 100% | 98.5% | – | –
2 | emamectin benzoate | 29 ppb | 112 ppb | 65 ppb | 202 ppb | – | – | – | – | 100% | 72.9%
